Assay results as given in the kinase profiling compilation of Christmann-Franck et al. (2016).

Assays:
Assay in all cases: radiometric filter-binding kinase assay, Kinase HotSpot
Conditions in all cases: compound 0.5 µM; ATP 10 µM
[1] = molecular target: ACVR1 (human) (UniProt Q04771)
[2] = molecular target: AKT2 (human) (UniProt P31751)
[3] = molecular target: BLK (human) (UniProt P51451)
[4] = molecular target: CAMK4 (human) (UniProt Q16566)
[5] = molecular target: CDK5 CDK5R1 p25 (human) (UniProt Q00535+Q15078)
[6] = molecular target: CLK4 (human) (UniProt Q9HAZ1)
[7] = molecular target: CSF1R (human) (UniProt P07333)
[8] = molecular target: CSNK1D (human) (UniProt P48730)
[9] = molecular target: EPHB3 (human) (UniProt P54753)
[10] = molecular target: EPHB4 (human) (UniProt P54760)
[11] = molecular target: FES (human) (UniProt P07332)
[12] = molecular target: FGFR1 (human) (UniProt P11362)
[13] = molecular target: FGFR2 (human) (UniProt P21802)
[14] = molecular target: IRAK4 (human) (UniProt Q9NWZ3)
[15] = molecular target: KIT (human) (UniProt P10721)
[16] = molecular target: LTK (human) (UniProt P29376)
[17] = molecular target: MAP3K7 TAB1 (human) (UniProt O43318+Q15750)
[18] = molecular target: MAPK1 (human) (UniProt P28482)
[19] = molecular target: MAPK10 (human) (UniProt P53779)
[20] = molecular target: MAPK3 (human) (UniProt P27361)
[21] = molecular target: MARK3 (human) (UniProt P27448)
[22] = molecular target: MARK4 (human) (UniProt Q96L34)
[23] = molecular target: MST4 (human) (UniProt Q9P289)
[24] = molecular target: PAK1 (human) (UniProt Q13153)
[25] = molecular target: PHKG2 (human) (UniProt P15735)
[26] = molecular target: PLK2 (human) (UniProt Q9NYY3)
[27] = molecular target: PRKCZ (human) (UniProt Q05513)
[28] = molecular target: PRKD2 (human) (UniProt Q9BZL6)
[29] = molecular target: PRKD3 (human) (UniProt O94806)
[30] = molecular target: PRKX (human) (UniProt P51817)
[31] = molecular target: RAF1 (human) (UniProt P04049)
[32] = molecular target: ROCK2 (human) (UniProt O75116)
[33] = molecular target: RPS6KA1 KD1 KD2 (human) (UniProt Q15418)
[34] = molecular target: RPS6KA3 KD1 KD2 (human) (UniProt P51812)
[35] = molecular target: RPS6KB2 (human) (UniProt Q9UBS0)
[36] = molecular target: SIK2 (human) (UniProt Q9H0K1)
[37] = molecular target: SLK (human) (UniProt Q9H2G2)
[38] = molecular target: SRC (human) (UniProt P12931)
[39] = molecular target: STK24 (human) (UniProt Q9Y6E0)
[40] = molecular target: TAOK2 (human) (UniProt Q9UL54)
[41] = molecular target: TGFBR2 (human) (UniProt P37173)
[42] = molecular target: ULK2 (human) (UniProt Q8IYT8)
ULK2 (human), sequence (Q8IYT8 whole entry, looked up): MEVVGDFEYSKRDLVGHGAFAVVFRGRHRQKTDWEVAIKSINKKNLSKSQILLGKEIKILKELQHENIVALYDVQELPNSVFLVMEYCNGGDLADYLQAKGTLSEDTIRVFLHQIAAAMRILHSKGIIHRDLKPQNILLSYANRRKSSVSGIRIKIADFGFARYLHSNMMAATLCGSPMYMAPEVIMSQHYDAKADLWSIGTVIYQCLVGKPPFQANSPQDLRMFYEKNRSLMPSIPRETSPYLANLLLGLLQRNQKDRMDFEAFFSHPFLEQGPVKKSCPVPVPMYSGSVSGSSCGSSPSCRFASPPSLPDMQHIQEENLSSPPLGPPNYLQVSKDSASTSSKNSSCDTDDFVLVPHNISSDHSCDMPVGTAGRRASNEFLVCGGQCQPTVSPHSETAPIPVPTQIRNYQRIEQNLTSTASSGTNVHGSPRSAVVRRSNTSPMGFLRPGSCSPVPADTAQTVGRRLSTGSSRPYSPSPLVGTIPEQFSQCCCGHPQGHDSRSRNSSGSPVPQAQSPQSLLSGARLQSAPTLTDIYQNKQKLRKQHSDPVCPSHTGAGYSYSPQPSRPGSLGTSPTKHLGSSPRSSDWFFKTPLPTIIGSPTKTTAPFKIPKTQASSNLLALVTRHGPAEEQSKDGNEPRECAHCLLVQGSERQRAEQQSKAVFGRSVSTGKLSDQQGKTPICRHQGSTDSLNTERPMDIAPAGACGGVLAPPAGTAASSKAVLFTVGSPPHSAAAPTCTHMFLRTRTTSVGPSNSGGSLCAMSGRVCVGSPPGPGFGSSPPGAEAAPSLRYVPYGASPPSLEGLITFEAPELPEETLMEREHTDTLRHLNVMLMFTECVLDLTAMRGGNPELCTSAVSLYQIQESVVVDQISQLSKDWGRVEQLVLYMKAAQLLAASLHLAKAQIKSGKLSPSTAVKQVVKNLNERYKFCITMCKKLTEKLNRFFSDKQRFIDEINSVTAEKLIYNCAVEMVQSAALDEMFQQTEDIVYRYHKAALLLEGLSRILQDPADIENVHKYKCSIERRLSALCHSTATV

TGFBR2 (human), sequence (P37173 whole entry, looked up): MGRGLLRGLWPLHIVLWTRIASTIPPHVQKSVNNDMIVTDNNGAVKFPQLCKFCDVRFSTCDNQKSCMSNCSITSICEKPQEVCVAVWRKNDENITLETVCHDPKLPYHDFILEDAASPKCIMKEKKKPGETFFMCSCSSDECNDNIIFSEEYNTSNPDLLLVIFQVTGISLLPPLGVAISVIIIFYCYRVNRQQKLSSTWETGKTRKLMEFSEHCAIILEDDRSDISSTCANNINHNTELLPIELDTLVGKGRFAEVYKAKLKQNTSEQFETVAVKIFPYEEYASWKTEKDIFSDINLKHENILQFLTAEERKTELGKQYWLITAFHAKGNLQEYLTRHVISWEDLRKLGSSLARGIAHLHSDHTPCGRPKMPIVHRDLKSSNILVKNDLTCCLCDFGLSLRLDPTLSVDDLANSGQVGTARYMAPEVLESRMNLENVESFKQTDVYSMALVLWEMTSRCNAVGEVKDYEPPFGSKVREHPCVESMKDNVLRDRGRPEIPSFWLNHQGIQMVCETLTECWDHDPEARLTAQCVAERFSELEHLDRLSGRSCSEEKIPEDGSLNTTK
IRAK4 (human), sequence (Q9NWZ3 whole entry, looked up): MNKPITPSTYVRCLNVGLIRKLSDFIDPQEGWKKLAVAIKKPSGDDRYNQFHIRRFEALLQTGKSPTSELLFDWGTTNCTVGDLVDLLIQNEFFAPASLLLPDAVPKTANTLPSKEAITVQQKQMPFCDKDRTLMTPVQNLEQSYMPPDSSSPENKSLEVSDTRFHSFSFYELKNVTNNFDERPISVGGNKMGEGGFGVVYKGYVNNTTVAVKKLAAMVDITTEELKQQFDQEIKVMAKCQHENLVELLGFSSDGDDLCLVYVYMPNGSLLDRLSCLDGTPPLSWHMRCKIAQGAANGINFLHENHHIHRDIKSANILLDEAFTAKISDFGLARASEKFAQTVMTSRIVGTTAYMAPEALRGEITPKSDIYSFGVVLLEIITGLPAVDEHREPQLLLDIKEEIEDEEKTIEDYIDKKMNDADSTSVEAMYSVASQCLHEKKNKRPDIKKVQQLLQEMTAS
FGFR2 (human), sequence (P21802 whole entry, looked up): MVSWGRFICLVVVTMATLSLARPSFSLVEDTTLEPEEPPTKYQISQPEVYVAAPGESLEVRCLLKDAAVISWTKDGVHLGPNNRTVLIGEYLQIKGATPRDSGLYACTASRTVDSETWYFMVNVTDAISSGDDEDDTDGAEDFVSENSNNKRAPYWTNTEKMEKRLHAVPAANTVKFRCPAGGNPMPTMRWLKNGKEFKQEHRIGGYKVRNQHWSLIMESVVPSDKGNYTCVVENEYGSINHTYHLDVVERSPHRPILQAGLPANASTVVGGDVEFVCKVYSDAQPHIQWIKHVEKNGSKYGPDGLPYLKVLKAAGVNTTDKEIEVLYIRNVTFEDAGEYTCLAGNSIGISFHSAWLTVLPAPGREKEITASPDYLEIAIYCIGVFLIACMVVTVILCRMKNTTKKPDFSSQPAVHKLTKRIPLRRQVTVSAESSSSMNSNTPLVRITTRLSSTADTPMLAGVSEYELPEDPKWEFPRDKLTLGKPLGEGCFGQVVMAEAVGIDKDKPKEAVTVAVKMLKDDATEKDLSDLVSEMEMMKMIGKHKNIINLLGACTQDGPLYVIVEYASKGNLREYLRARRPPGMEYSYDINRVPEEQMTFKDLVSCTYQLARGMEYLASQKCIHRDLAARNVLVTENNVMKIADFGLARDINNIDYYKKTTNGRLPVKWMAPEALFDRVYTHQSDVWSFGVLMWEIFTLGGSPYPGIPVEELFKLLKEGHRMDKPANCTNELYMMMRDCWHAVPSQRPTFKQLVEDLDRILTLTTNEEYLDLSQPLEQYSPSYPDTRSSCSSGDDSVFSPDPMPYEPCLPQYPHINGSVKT
CSF1R (human), sequence (P07333 whole entry, looked up): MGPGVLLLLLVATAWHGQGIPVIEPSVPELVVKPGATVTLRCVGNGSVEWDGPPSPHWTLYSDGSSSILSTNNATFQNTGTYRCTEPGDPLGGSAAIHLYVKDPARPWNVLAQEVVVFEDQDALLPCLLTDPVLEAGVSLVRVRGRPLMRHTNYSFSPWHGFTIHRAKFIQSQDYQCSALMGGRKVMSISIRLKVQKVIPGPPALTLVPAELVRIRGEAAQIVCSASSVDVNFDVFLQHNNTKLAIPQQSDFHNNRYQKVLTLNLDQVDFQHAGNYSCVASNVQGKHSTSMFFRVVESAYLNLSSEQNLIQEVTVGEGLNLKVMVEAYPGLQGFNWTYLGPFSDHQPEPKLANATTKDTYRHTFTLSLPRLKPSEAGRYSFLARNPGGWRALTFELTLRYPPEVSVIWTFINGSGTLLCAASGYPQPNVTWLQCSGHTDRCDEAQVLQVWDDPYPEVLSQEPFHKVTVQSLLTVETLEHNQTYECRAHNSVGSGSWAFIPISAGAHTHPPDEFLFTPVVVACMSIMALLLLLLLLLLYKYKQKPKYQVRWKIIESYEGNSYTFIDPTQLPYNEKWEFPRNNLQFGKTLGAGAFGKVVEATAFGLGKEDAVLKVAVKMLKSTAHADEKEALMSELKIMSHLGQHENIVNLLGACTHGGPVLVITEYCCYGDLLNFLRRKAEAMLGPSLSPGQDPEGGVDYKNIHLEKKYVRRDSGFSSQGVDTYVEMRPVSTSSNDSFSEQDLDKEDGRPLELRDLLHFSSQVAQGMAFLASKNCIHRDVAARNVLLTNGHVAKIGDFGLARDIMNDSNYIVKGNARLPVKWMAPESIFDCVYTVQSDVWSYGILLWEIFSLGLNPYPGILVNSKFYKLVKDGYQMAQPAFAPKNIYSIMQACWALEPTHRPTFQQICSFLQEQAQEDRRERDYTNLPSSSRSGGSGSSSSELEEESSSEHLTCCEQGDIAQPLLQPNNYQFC
SLK (human), sequence (Q9H2G2 whole entry, looked up): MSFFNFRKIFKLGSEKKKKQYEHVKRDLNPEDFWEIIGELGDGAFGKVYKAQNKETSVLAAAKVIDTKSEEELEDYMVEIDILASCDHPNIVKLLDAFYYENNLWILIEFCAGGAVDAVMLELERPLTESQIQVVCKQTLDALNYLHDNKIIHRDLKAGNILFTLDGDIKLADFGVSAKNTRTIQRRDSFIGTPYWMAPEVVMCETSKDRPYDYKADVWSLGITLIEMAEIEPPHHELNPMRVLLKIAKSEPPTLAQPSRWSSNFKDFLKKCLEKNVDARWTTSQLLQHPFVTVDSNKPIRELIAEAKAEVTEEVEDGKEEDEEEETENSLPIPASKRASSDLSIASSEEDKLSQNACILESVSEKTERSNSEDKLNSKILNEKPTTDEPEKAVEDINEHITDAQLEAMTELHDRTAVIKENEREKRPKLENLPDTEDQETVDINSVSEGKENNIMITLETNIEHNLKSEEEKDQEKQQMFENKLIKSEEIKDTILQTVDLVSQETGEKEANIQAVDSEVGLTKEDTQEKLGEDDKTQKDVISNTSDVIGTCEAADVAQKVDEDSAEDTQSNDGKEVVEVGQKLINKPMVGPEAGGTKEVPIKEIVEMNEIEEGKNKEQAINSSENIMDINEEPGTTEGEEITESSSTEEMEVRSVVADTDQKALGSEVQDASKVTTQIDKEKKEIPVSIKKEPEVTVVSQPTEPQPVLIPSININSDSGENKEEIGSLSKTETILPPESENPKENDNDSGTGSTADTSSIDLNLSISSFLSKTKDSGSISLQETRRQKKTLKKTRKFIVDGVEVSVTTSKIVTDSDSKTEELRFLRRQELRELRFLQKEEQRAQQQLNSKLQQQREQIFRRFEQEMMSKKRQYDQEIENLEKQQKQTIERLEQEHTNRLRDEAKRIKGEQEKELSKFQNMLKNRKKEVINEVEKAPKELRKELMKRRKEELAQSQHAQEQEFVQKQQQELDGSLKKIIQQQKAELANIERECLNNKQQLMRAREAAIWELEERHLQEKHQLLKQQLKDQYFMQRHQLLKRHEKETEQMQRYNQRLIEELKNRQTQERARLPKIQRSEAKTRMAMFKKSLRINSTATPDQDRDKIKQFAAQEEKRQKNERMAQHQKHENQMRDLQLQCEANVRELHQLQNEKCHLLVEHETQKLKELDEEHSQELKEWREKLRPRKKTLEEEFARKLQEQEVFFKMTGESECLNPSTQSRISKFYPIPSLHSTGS

Work on `O=C(Nc1ccc(Cl)cc1)c1ccccc1NCc1ccncc1` yielded a residual activity [1] of 97.2%, a residual activity [2] of 95.2% and a residual activity [3] of 102%. The residual activity [4] was 101%, the residual activity [5] was 84.9% and the residual activity [6] was 107%. For the same compound, the residual activity [7] was 18.4%, the residual activity [8] was 98.1% and the residual activity [9] was 96.9%. It also gave a residual activity [10] of 89.6%, a residual activity [11] of 96.6% and a residual activity [12] of 83.7%. The residual activity [13] was 95.7%, the residual activity [14] was 104% and the residual activity [15] was 33.6%. For the same compound, the residual activity [16] was 104%, the residual activity [17] was 98.1% and the residual activity [18] was 94.7%. It also gave a residual activity [19] of 89.9%, a residual activity [20] of 102% and a residual activity [21] of 93.1%. It also gave a residual activity [22] of 107%, a residual activity [23] of 90.9% and a residual activity [24] of 94.9%. For the same compound, the residual activity [25] was 97.1%, the residual activity [26] was 99.3% and the residual activity [27] was 100%. For the same compound, the residual activity [28] was 98%, the residual activity [29] was 92.1% and the residual activity [30] was 90.5%. For the same compound, the residual activity [31] was 62.6%, the residual activity [32] was 93.8% and the residual activity [33] was 92%. It also gave a residual activity [34] of 91.4%, a residual activity [35] of 105% and a residual activity [36] of 94.8%. For the same compound, the residual activity [37] was 86.6%, the residual activity [38] was 88.8% and the residual activity [39] was 92.6%. The residual activity [40] was 102%, the residual activity [41] was 90.1% and the residual activity [42] was 104%.
Work on `NC(=O)c1ccc(N(C(N)=O)c2c(F)cccc2F)nc1-c1ccc(F)cc1F` yielded a residual activity [1] of 105%, a residual activity [2] of 118% and a residual activity [3] of 100%. For the same compound, the residual activity [4] was 91.9%, the residual activity [5] was 95.9% and the residual activity [6] was 114%. For the same compound, the residual activity [7] was 109%, the residual activity [8] was 89.8% and the residual activity [9] was 65.8%. For the same compound, the residual activity [10] was 83.9%, the residual activity [11] was 99% and the residual activity [12] was 99%. For the same compound, the residual activity [13] was 99.5%, the residual activity [14] was 87.5% and the residual activity [15] was 97.7%. It also gave a residual activity [16] of 95%, a residual activity [17] of 105% and a residual activity [18] of 85.7%. The residual activity [19] was 98.4%, the residual activity [20] was 95.2% and the residual activity [21] was 98.1%. For the same compound, the residual activity [22] was 102%, the residual activity [23] was 117% and the residual activity [24] was 110%. It also gave a residual activity [25] of 93.1%, a residual activity [26] of 102% and a residual activity [27] of 89.9%. It also gave a residual activity [28] of 81.8%, a residual activity [29] of 85.1% and a residual activity [30] of 123%. The residual activity [31] was 97.5%, the residual activity [32] was 97.7% and the residual activity [33] was 109%. It also gave a residual activity [34] of 99.8%, a residual activity [35] of 100% and a residual activity [36] of 95.1%. For the same compound, the residual activity [37] was 90.7%, the residual activity [38] was 109% and the residual activity [39] was 105%. For the same compound, the residual activity [40] was 98.7%, the residual activity [41] was 102% and the residual activity [42] was 101%.
With `Nc1nc(Nc2ccc(S(N)(=O)=O)cc2)nn1C(=S)Nc1c(F)cccc1F` the residual activity [1] was 60.4%, the residual activity [2] was 103% and the residual activity [3] was 38.6%. It also gave a residual activity [4] of 98.8%, a residual activity [5] of 0.156% and a residual activity [6] of 1.92%. It also gave a residual activity [7] of 10.6%, a residual activity [8] of 83.7% and a residual activity [9] of 90.4%. For the same compound, the residual activity [10] was 51%, the residual activity [11] was 10.2% and the residual activity [12] was 6.59%. It also gave a residual activity [13] of 7.43%, a residual activity [14] of 19.6% and a residual activity [15] of 78.4%. For the same compound, the residual activity [16] was 27.6%, the residual activity [17] was 12.5% and the residual activity [18] was 76.2%. The residual activity [19] was 105%, the residual activity [20] was 78.9% and the residual activity [21] was 0.29%. For the same compound, the residual activity [22] was 2.33%, the residual activity [23] was 4.54% and the residual activity [24] was 29%. The residual activity [25] was 95.5%, the residual activity [26] was 88.5% and the residual activity [27] was 83.7%. For the same compound, the residual activity [28] was 9.05%, the residual activity [29] was 7.37% and the residual activity [30] was 76.3%. For the same compound, the residual activity [31] was 110%, the residual activity [32] was 6.22% and the residual activity [33] was 5.34%. For the same compound, the residual activity [34] was -0.692%, the residual activity [35] was 96.2% and the residual activity [36] was 16.1%. For the same compound, the residual activity [37] was 4.58%, the residual activity [38] was 41.6% and the residual activity [39] was 2.88%. The residual activity [40] was 11.5%, the residual activity [41] was 89.3% and the residual activity [42] was 4.73%.
`O=c1cc(-c2cccc3c2Sc2ccccc2S3)oc(N2CCOCC2)c1` gave a residual activity [1] of 97.5%, a residual activity [2] of 96% and a residual activity [3] of 96.2%. For the same compound, the residual activity [4] was 94%, the residual activity [5] was 96.8% and the residual activity [6] was 101%. The residual activity [7] was 91.9%, the residual activity [8] was 106% and the residual activity [9] was 105%. For the same compound, the residual activity [10] was 94.3%, the residual activity [11] was 104% and the residual activity [12] was 99.2%. It also gave a residual activity [13] of 98.7%, a residual activity [14] of 160% and a residual activity [15] of 96.8%. For the same compound, the residual activity [16] was 94.1%, the residual activity [17] was 84.5% and the residual activity [18] was 100%. For the same compound, the residual activity [19] was 93.6%, the residual activity [20] was 118% and the residual activity [21] was 106%. It also gave a residual activity [22] of 100%, a residual activity [23] of 90.4% and a residual activity [24] of 92.3%. The residual activity [25] was 98.6%, the residual activity [26] was 84.6% and the residual activity [27] was 102%. For the same compound, the residual activity [28] was 105%, the residual activity [29] was 83.4% and the residual activity [30] was 113%. The residual activity [31] was 94.7%, the residual activity [32] was 109% and the residual activity [33] was 97.6%. The residual activity [34] was 102%, the residual activity [35] was 102% and the residual activity [36] was 113%. For the same compound, the residual activity [37] was 93.5%, the residual activity [38] was 106% and the residual activity [39] was 97.8%. It also gave a residual activity [40] of 101%, a residual activity [41] of 93.4% and a residual activity [42] of 123%.
